Test results from US9938273B2 (Plexxikon Inc., priority 2015, dated 2018).

Molecular target: T1, BA/F3-FLT3-ITD + D835Y cells (Homo sapiens, UniProt P36888, D835Y, cells depend on it, form not given)
T1 sequence (P36888 1-993 D835Y): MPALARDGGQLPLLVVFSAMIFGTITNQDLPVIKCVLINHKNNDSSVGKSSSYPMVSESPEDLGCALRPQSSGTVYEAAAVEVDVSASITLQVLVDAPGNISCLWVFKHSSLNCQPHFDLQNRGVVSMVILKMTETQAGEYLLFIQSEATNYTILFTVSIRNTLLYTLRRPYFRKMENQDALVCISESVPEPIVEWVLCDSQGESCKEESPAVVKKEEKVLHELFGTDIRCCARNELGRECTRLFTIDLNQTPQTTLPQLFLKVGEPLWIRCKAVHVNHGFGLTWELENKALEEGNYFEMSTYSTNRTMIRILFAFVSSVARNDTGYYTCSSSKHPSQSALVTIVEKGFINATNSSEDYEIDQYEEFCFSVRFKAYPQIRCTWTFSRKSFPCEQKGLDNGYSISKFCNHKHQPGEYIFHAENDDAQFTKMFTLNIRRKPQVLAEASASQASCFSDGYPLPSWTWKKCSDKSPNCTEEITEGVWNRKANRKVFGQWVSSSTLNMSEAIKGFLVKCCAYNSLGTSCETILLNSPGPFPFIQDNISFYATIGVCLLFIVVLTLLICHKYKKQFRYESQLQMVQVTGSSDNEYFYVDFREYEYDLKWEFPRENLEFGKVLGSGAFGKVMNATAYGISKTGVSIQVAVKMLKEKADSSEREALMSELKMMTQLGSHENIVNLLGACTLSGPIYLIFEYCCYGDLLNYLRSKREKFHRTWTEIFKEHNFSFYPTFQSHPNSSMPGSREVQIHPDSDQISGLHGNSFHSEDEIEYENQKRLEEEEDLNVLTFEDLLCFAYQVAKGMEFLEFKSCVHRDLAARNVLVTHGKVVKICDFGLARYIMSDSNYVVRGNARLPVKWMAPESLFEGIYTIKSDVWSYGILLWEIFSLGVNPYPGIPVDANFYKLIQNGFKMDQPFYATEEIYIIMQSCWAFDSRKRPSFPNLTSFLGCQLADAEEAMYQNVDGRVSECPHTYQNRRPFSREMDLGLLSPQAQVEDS
Assay: Cell proliferation assay (CellTiter-Glo), engineered BA/F3 cells
Format: cell-based, murine
Settings: BaF3 FLT3 ITD/D835Y cells, 3d-Growth; read-out: BaF3_FLT3 ITD/D835Y 3d-Growth: IC50
In short: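 Three-day growth at 37 °C, 5% CO2 under compound (1 μM top final, 1:3 dilutions, eight points, 0.2% DMSO), read as ATP luminescence by CellTiter-Glo for IC50. Cells: MOLM-14 with FLT3 ITD plus D835Y or F691L, and IL-3-deprived Ba/F3 transfected with FLT3 ITD/D835Y, 1×10^4 per well.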

SMILES	GI50
NC1CCN(C(=O)c2n[nH]c3ccc(-c4cnc5[nH]c(C6=CCN(C(=O)C7CC7)C6)cc5c4)cc23)CC1 [Compound P-0074, (4-amino-1-piperidyl)-[5-[2-[1-(cyclopropanecarbonyl)-2,5-dihydropyrrol-3-yl]-1H-pyrrolo[2,3-b]pyridin-5-yl]-1H-indazol-3-yl]methanone]	0.0001 to 10 µM
CN(C(=O)c1cccc(-c2cnc3[nH]c(-c4ccccc4)cc3c2)n1)C1CCNC1 (stereo not drawn) [Compound P-0076, N-methyl-6-(2-phenyl-1H-pyrrolo[2,3-b]pyridin-5-yl)-N-pyrrolidin-3-yl-pyridine-2-carboxamide]	0.0001 to 10 µM
CNC1CCCN(C(=O)c2cccc(-c3cnc4[nH]c(-c5ccccc5)cc4c3)n2)C1 (stereo not drawn) [Compound P-0080, [3-(methylamino)-1-piperidyl]-[6-(2-phenyl-1H-pyrrolo[2,3-b]pyridin-5-yl)-2-pyridyl]methanone]	0.0001 to 10 µM
CC1(N)CCN(C(=O)c2cccc(-c3cnc4[nH]c(-c5ccccc5)cc4c3)n2)CC1 [Compound P-0081, (4-amino-4-methyl-1-piperidyl)-[6-(2-phenyl-1H-pyrrolo[2,3-b]pyridin-5-yl)-2-pyridyl]methanone]	0.0001 to 10 µM
CC1(N)CCCN(C(=O)c2cccc(-c3cnc4[nH]c(-c5ccccc5)cc4c3)n2)C1 (stereo not drawn) [Compound P-0082, (3-amino-3-methyl-1-piperidyl)-[6-(2-phenyl-1H-pyrrolo[2,3-b]pyridin-5-yl)-2-pyridyl]methanone]	0.0001 to 10 µM
N[C@@H]1CN(C(=O)c2cccc(-c3cnc4[nH]c(-c5ccccc5)cc4c3)n2)CC12CC2 [Compound P-0083, [(7S)-7-amino-5-azaspiro[2.4]heptan-5-yl]-[6-(2-phenyl-1H-pyrrolo[2,3-b]pyridin-5-yl)-2-pyridyl]methanone]	0.0001 to 10 µM
CNC1CCN(Cc2cccc(-c3cnc4[nH]c(-c5ccccc5)cc4c3)n2)C1 (stereo not drawn) [Compound P-0087, N-methyl-1-[[6-(2-phenyl-1H-pyrrolo[2,3-b]pyridin-5-yl)-2-pyridyl]methyl]pyrrolidin-3-amine]	0.0001 to 10 µM
O=C(c1cccc(-c2cnc3[nH]c(-c4ccccc4)cc3c2)n1)N1CCC(F)(F)CC1 [Compound P-0089, (4,4-difluoro-1-piperidyl)-[6-(2-phenyl-1H-pyrrolo[2,3-b]pyridin-5-yl)-2-pyridyl]methanone]	0.0001 to 10 µM
COC(=O)C1(C)CCN(C(=O)c2cccc(-c3cnc4[nH]c(-c5ccccc5)cc4c3)n2)CC1 [Compound P-0092, methyl 4-methyl-1-[6-(2-phenyl-1H-pyrrolo[2,3-b]pyridin-5-yl)pyridine-2-carbonyl]piperidine-4-carboxylate]	0.0001 to 10 µM
